Tests used:
P. aeruginosa: AMT0294L [1] = assay: Viability after HOSCN exposure; details: late disease antibiotic-resistant CF isolate
E. coli: AB1157 [2] = assay: Viability after HOSCN exposure
B. vietnameisis = assay: Bacterial sensitivity towards HOSCN killing; assay type: cell-based, Burkholderia cepacia complex (BCC); details: HOSCN flux for 2 hours, GOX/LPO/SCN system, pH 7.4
Protocol: (§1) FIGS. 11A-11D. […] A lactoperoxidase (LPO) system was used to generate increasing fluxes of either HOSCN or HOSeCN in presence of 400 μM of either ^−SCN or ^−SeCN. LPO in the presence of a hydrogen peroxide generating system (glucose oxidase, GOX) can convert both thiocyanate and selenocyante to their respective hypopseudohalous acid species (HOSCN and HOSeCN) that are biocides. […] Bacterial inoculums (10^6 colony forming units, CFU) were incubated with host defense system for 2 hours at room temperature and bacteria were plated on LB agar plates and cell viability was determined by dilution and counting CFUs.
(§2) LPO in the presence of a hydrogen peroxide generating system (glucose oxidase, GOX) can convert both thiocyanate and selenocyante to their respective hypopseudohalous acid species (HOSCN and HOSeCN) that are biocides. […] Bacterial inoculums (10^6 colony forming units, CFU) were incubated with host defense system for 2 hours at room temperature and bacteria were plated on LB agar plates and cell viability was determined by dilution and counting CFUs. Lethal concentrations that kill 50% of bacteria (LC50) were determined by non-linear curve fitting the data.
(§3) Bacteria were incubated for 2 hour with LPO, ^−SCN or SeCN, glucose and increasing amounts of GOX. The flux (HOX) of either HOSCN or HOSeCN was determined from standard curves of GOX/LPO and either HOSCN or HOSeCN. LC50 values were determined by curve fitting the data with nonlinear regression of log (agonist) vs normalized response.

B. dolsa = assay: Bacterial sensitivity towards HOSCN killing; assay type: cell-based, Burkholderia cepacia complex (BCC); details: CF sputum isolate, HOSCN flux for 2 hours, GOX/LPO/SCN system, pH 7.4
Protocol: as §1, §2, §3

B. multivorans 41 = assay: Bacterial sensitivity towards HOSCN killing; assay type: cell-based, Burkholderia cepacia complex (BCC); details: B. multivorans 41, CF sputum isolate; HOSCN flux for 2 hours, GOX/LPO/SCN system, pH 7.4
Protocol: as §1, §2, §3

B. cenocepacia = assay: Bacterial sensitivity towards HOSCN killing; assay type: cell-based, Burkholderia cepacia complex (BCC); details: CF sputum isolate, HOSCN flux for 2 hours, GOX/LPO/SCN system, pH 7.4
Protocol: as §1, §2, §3

P. aeruginosa: AMT0058L [3] = assay: Viability after HOSCN exposure; details: late disease antibiotic-resistant CF isolate
E. coli: AB1157 [4] = assay: HOSCN reductase activity
[5] = molecular target: purified E. coli Cys-TrxR (Escherichia coli, UniProt P0A9P4); assay: Sulfenic acid (dimedone label) formation, western blot; assay type: biochemical; details: 5 minutes exposure; reversible by NAC
Protocol: FIG. 15. Western blot of sulfenic acid (dimedione label) formation on purified E. coli Cys-TrxR after 5 minutes HOSCN exposure (molar ratios label each lane) or plus 1 minute PBS or N-acetylcysteine (NAC). For lane 8, H2O2 was used instead of HOSCN.
HOSCN is an interesting oxidant due to its affinity for only very acidic thiol groups on proteins (Barrett, T. J., et al. (2012) Inactivation of thiol-dependent enzymes by hypothiocyanous acid: role of sulfenyl thiocyanate and sulfenic acid intermediates. Free Radic Biol Med 52, 1075-1085). This property of HOSCN allows it to diffuse much easier to distant targets. Cys-TrxR has two cysteine residues in its active site that are acidic and it is expected that HOSCN oxidizes them as part of its mechanism of inactivation. Data has shown that dimedone labels sulfenic acid residues in E. coli Cys-TrxR upon selective thiol oxidation by HOSCN (FIG. 15). […] This probe can be used in tandem with western blotting and LC-MS approaches to characterize thiol oxidation of bacterial Cys-TrxRs. Although previous studies have looked at potential bacteria targets for oxidative inactivation by oxidants produced by haloperoxidases, Cys-TrxR was not previously identified (Tenovuo, J., and Pruitt, K. M. (1984) Relationship of the human salivary peroxidase system to oral health. J Oral Pathol 13, 573-584).

P. aeruginosa: AMT0145L = assay: Viability after HOSCN exposure; details: late disease antibiotic-resistant CF isolate
P. aeruginosa: PAO1 [6] = assay: Viability after HOSCN exposure
P. aeruginosa: AMT0009L [7] = assay: Viability after HOSCN exposure; details: late disease antibiotic-resistant CF isolate
P. aeruginosa: AMT0058L [8] = assay: HOSCN reductase activity
P. aeruginosa: AMT0294L [9] = assay: HOSCN reductase activity
P. aeruginosa: PAO1 [10] = assay: HOSCN reductase activity
P. aeruginosa: AMT0027L = assay: HOSCN reductase activity
[11] = test system: Sec-TrxR activity in J774 cells; assay: Sec-TrxR activity induction in J774 cells; assay type: cell-based; details: 2 hours exposure, lysates measured 24 hours later
Protocol: FIG. 17. […] Cells were exposed to increasing concentrations of HOSCN, hydrogen peroxide or 100 ng/ml PA LPS for 2 hours and then cell lysates where measured 24 hours later for Sec-TrxR activity.
The role of extracellular SCN in modulating neutrophil responses to infectious stimuli, and to test how this impacts their ability to kill or suppress bacterial growth and attenuate pro-inflammatory environments is determined as provided for in Example 3 herein. De-identified human blood neutrophils from normal and CF subjects are used. Readouts include changes in bacterial growth rates, phagocytosis, and cytokine release over time correlated to changes in intracellular ^−SCN and Sec-TrxR levels. Additionally, how extracellular thiol levels modulate leukocyte function by changing intracellular thiol status and its known effects on dampening NFkB cell signaling pathways based on previous work with GSH (Gould, N. S., et al. (2011) Macropinocytosis of extracellular glutathione ameliorates tumor necrosis factor alpha release in activated macrophages. PLoS One 6, e25704) is disclosed. […] Since HOSCN is an oxidant and capable of redox signaling, examination of whether it can regulate its own metabolism by inducing Sec-TrxR expression is done.

P. aeruginosa: AMT0009L [12] = assay: HOSCN reductase activity

Chain of purified E. coli Cys-TrxR (P0A9P4 whole entry): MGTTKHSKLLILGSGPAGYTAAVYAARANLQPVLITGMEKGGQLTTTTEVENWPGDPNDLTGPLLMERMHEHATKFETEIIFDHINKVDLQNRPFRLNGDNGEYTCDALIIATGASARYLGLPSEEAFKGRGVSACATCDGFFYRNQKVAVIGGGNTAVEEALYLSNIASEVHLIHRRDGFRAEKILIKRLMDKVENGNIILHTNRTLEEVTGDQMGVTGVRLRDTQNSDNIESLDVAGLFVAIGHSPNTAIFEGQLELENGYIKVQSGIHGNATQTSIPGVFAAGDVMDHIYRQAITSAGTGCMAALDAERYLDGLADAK

## N#CSO [HOSCN, hypothiocyanite]
P. aeruginosa: AMT0294L [1]
  Viability (%): 0%
E. coli: AB1157 [2]
  Viability (%): 0%
B. vietnameisis
  HOSCN IC50: 64 µM/h
B. dolsa
  HOSCN IC50: 79 µM/h
B. multivorans 41
  HOSCN IC50: 18 µM/h
B. cenocepacia
  HOSCN IC50: 59 µM/h
P. aeruginosa: AMT0058L [3]
  Viability (%): 0.7 ± 0.4%
E. coli: AB1157 [4]
  Apparent Vmax (HOSCN reductase activity): ND^c (No activity detected. Limit of detection = 0.5 nmol mg^−1 min^−1)
[5]
  Oxidation of Cys-TrxR: rapidly oxidized
P. aeruginosa: AMT0145L
  Viability (%): 24.8 ± 2.5%
P. aeruginosa: PAO1 [6]
  Viability (%): 0%
P. aeruginosa: AMT0009L [7]
  Viability (%): 4.2 ± 2.1%
P. aeruginosa: AMT0058L [8]
  Apparent Vmax (HOSCN reductase activity): 1.2 ± 0.2 nmol/mg/min
P. aeruginosa: AMT0294L [9]
  Apparent Vmax (HOSCN reductase activity): ND^c (No activity detected. Limit of detection = 0.5 nmol mg^−1 min^−1)
P. aeruginosa: PAO1 [10]
  Apparent Vmax (HOSCN reductase activity): ND^c (No activity detected. Limit of detection = 0.5 nmol mg^−1 min^−1)
P. aeruginosa: AMT0027L
  Apparent Vmax (HOSCN reductase activity): ND^c (No activity detected. Limit of detection = 0.5 nmol mg^−1 min^−1)
[11]
  Sec-TrxR activity: induces Sec-TrxR activity
P. aeruginosa: AMT0009L [12]
  Apparent Vmax (HOSCN reductase activity): 0.8 ± 0.3 nmol/mg/min
